{"source": "patent US6737383B1", "about": "“Herbicidal oxadiazolidines” (priority 1999, dated 2004)", "key": {"[1]": {"system": "bedstraw", "assay": "Test B pre/postemergence bedstraw", "type": "in vivo, Galium aparine", "settings": "Postemergence; for Plant response rating, Bedstraw: scale 0 to 10, 0 is no effect, 10 is complete control; for Bedstraw plant response rating: scale of 0 to 10 where 0 is no effect and 10 is complete control", "procedure,_shortened": "(§1)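 Herbicidal effect was estimated by eye on a ten-point control scale after plants spent twelve to sixteen days in a greenhouse following soil or foliar treatment. Foliar sprays targeted plants at one to four leaves; all doses were formulated in a non-phytotoxic solvent with surfactant.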"}, "[2]": {"system": "blackgrass", "assay": "Test B pre/postemergence blackgrass", "type": "in vivo, Alopecurus myosuroides", "procedure,_shortened": "as §1"}, "[3]": {"system": "surinam grass", "assay": "Test B pre/postemergence surinam grass", "type": "in vivo, Brachiaria decumbens", "procedure,_shortened": "as §1"}, "[4]": {"system": "cocklebur", "assay": "Test B pre/postemergence cocklebur", "type": "in vivo, Xanthium strumarium", "procedure,_shortened": "as §1"}, "[5]": {"system": "corn", "assay": "Test B pre/postemergence corn", "type": "in vivo, Zea mays", "procedure,_shortened": "as §1"}, "[6]": {"system": "morningglory", "assay": "Test B pre/postemergence morningglory", "type": "in vivo, Ipomoea hederacea", "procedure,_shortened": "as §1"}, "[7]": {"system": "pigweed", "assay": "Test B pre/postemergence pigweed", "type": "in vivo, Amaranthus retroflexus", "procedure,_shortened": "as §1"}, "[8]": {"system": "rape", "assay": "Test B pre/postemergence rape", "type": "in vivo, Brassica napus", "procedure,_shortened": "as §1"}, "[9]": {"system": "velvetleaf", "assay": "Test B pre/postemergence velvetleaf", "type": "in vivo, Abutilon theophrasti", "procedure,_shortened": "as §1"}, "[10]": {"system": "wheat", "assay": "Test B pre/postemergence wheat", "type": "in vivo, Triticum aestivum", "procedure,_shortened": "as §1"}, "[11]": {"system": "wild oat", "assay": "Test B pre/postemergence wild oat", "type": "in vivo, Avena fatua", "procedure,_shortened": "as §1"}, "[12]": {"system": "purple nutsedge", "assay": "Test B pre/postemergence purple nutsedge", "type": "in vivo, Cyperus rotundus", "procedure,_shortened": "as §1"}, "[13]": {"system": "rice", "assay": "Test B flood test rice", "type": "in vivo, Oryza sativa", "procedure,_shortened": "(§2)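 Plants were grown to the 2-leaf stage before treatment with test chemical, then held in a greenhouse for twelve to sixteen days. Injury was visually rated against untreated controls on a 0–10 scale, where 0 is no effect and 10 is complete control.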"}, "[14]": {"system": "smallflower flatsedge", "assay": "Test B flood test smallflower flatsedge", "type": "in vivo, Cyperus difformis", "procedure,_shortened": "as §2"}, "[15]": {"system": "duck salad", "assay": "Test B flood test duck salad", "type": "in vivo, Heteranthera limosa", "settings": "for Plant response rating, Ducksalad: scale 0 to 10, 0 is no effect, 10 is complete control; for Ducksalad plant response rating: scale of 0 to 10 where 0 is no effect and 10 is complete control", "procedure,_shortened": "as §2"}, "[16]": {"system": "bamyardgrass", "assay": "Test B flood test barnyardgrass", "type": "in vivo, Echinochloa crus-galli", "settings": "for Plant response rating, Barnyardgrass: scale 0 to 10, 0 is no effect, 10 is complete control; for Barnyardgrass plant response rating: scale of 0 to 10 where 0 is no effect and 10 is complete control", "procedure,_shortened": "as §2"}, "[17]": {"settings": "Postemergence, Rate 125 g/ha, scale 0 to 10, 0 is no effect, 10 is complete control"}, "[18]": {"settings": "Postemergence, Rate 250 g/ha, scale 0 to 10, 0 is no effect, 10 is complete control"}, "[19]": {"settings": "Postemergence, Rate 500 g/ha, scale of 0 to 10 where 0 is no effect and 10 is complete control"}, "[20]": {"settings": "Preemergence, Rate 62 g/ha, scale 0 to 10 (0 no effect, 10 complete control)"}, "[21]": {"settings": "Preemergence, Rate 125 g/ha, scale of 0 to 10 where 0 is no effect and 10 is complete control"}, "[22]": {"settings": "Preemergence, Rate 250 g/ha, scale of 0 to 10 where 0 is no effect and 10 is complete control"}, "[23]": {"settings": "Preemergence, Rate 500 g/ha, scale 0 to 10, 0 is no effect, 10 is complete control"}, "[24]": {"settings": "Rate 62 g/ha, Postemergence, scale of 0 to 10 where 0 is no effect and 10 is complete control"}, "[25]": {"settings": "Preemergence, Rate 250 g/ha, scale 0 to 10, 0 is no effect, 10 is complete control"}, "[26]": {"settings": "Postemergence section (flood test species), Rate 500 g/ha, scale of 0 to 10 where 0 is no effect and 10 is complete control"}, "[27]": {"settings": "flood test species, listed under Postemergence, Rate 250 g/ha, scale 0 to 10, 0 is no effect, 10 is complete control"}, "[28]": {"settings": "Postemergence (flood test), Rate 125 g/ha"}, "[29]": {"settings": "Postemergence section (flood test species), Rate 500 g/ha"}, "[30]": {"settings": "Rate 62 g/ha, Postemergence (flood test species)"}, "[31]": {"settings": "flood test species, listed under Postemergence, Rate 250 g/ha"}}, "data": [{"smiles": "CC(C)N(C(=O)n1oc(=O)n(CC2(C)COC2)c1=O)c1ccccc1", "note": "[Compound 420]", "values": [{"measurement": "Plant response rating, Bedstraw", "setting": "[1]; Rate 125 g/ha", "result": 0}, {"measurement": "Plant response rating, Bedstraw", "setting": "[1]; Rate 250 g/ha", "result": 3}, {"measurement": "Bedstraw plant response rating", "setting": "[1]; Rate 500 g/ha", "result": 5}, {"measurement": "Bedstraw plant response rating", "setting": "[1]; Rate 62 g/ha", "result": 0}, {"measurement": "Plant response rating, Blackgrass", "setting": "[2]; [17]", "result": 2}, {"measurement": "Plant response rating, Blackgrass", "setting": "[2]; [18]", "result": 6}, {"measurement": "Blackgrass plant response rating", "setting": "[2]; [19]", "result": 6}, {"measurement": "Plant response rating, Blackgrass", "setting": "[2]; [20]", "result": 4}, {"measurement": "Plant response rating, Blackgrass", "setting": "[2]; [21]", "result": 8}, {"measurement": "Blackgrass plant response rating", "setting": "[2]; [22]", "result": 8}, {"measurement": "Blackgrass plant response rating", "setting": "[2]; [23]", "result": 10}, {"measurement": "Blackgrass plant response rating", "setting": "[2]; [24]", "result": 0}, {"measurement": "Plant response rating, B. signalgrass", "setting": "[3]; [17]", "result": 2}, {"measurement": "Plant response rating, B. signalgrass", "setting": "[3]; [18]", "result": 5}, {"measurement": "B. signalgrass plant response rating", "setting": "[3]; [19]", "result": 7}, {"measurement": "Plant response rating, B. signalgrass", "setting": "[3]; [20]", "result": 2}, {"measurement": "Plant response rating, B. signalgrass", "setting": "[3]; [21]", "result": 2}, {"measurement": "B. signalgrass plant response rating", "setting": "[3]; [22]", "result": 6}, {"measurement": "B. signalgrass plant response rating", "setting": "[3]; Preemergence, Rate 500 g/ha, scale of 0 to 10 where 0 is no effect and 10 is complete control", "result": 8}, {"measurement": "B. signalgrass plant response rating", "setting": "[3]; [24]", "result": 0}, {"measurement": "Plant response rating, Cocklebur", "setting": "[4]; [17]", "result": 0}, {"measurement": "Plant response rating, Cocklebur", "setting": "[4]; [18]", "result": 0}, {"measurement": "Cocklebur plant response rating", "setting": "[4]; [19]", "result": 0}, {"measurement": "Plant response rating, Cocklebur", "setting": "[4]; [20]", "result": 0}, {"measurement": "Plant response rating, Cocklebur", "setting": "[4]; [21]", "result": 0}, {"measurement": "Cocklebur plant response rating", "setting": "[4]; [25]", "result": 0}, {"measurement": "Cocklebur plant response rating", "setting": "[4]; [23]", "result": 0}, {"measurement": "Cocklebur plant response rating", "setting": "[4]; [24]", "result": 0}, {"measurement": "Plant response rating, Corn", "setting": "[5]; [17]", "result": 0}, {"measurement": "Plant response rating, Corn", "setting": "[5]; [18]", "result": 0}, {"measurement": "Corn plant response rating", "setting": "[5]; [19]", "result": 0}, {"measurement": "Plant response rating, Corn", "setting": "[5]; [20]", "result": 0}, {"measurement": "Plant response rating, Corn", "setting": "[5]; [21]", "result": 0}, {"measurement": "Corn plant response rating", "setting": "[5]; [25]", "result": 0}, {"measurement": "Corn plant response rating", "setting": "[5]; [23]", "result": 2}, {"measurement": "Corn plant response rating", "setting": "[5]; [24]", "result": 0}, {"measurement": "Plant response rating, Morningglory", "setting": "[6]; [18]", "result": 4}, {"measurement": "Morningglory plant response rating", "setting": "[6]; [19]", "result": 10}, {"measurement": "Plant response rating, Morningglory", "setting": "[6]; [20]", "result": 0}, {"measurement": "Plant response rating, Morningglory", "setting": "[6]; [21]", "result": 0}, {"measurement": "Morningglory plant response rating", "setting": "[6]; [25]", "result": 2}, {"measurement": "Morningglory plant response rating", "setting": "[6]; [23]", "result": 8}, {"measurement": "Plant response rating, Redroot pigweed", "setting": "[7]; [18]", "result": 0}, {"measurement": "Redroot pigweed plant response rating", "setting": "[7]; [19]", "result": 0}, {"measurement": "Plant response rating, Redroot pigweed", "setting": "[7]; [20]", "result": 0}, {"measurement": "Plant response rating, Redroot pigweed", "setting": "[7]; [21]", "result": 2}, {"measurement": "Redroot pigweed plant response rating", "setting": "[7]; [25]", "result": 2}, {"measurement": "Redroot pigweed plant response rating", "setting": "[7]; [23]", "result": 5}, {"measurement": "Plant response rating, Rape", "setting": "[8]; [18]", "result": 0}, {"measurement": "Rape plant response rating", "setting": "[8]; [19]", "result": 0}, {"measurement": "Plant response rating, Rape", "setting": "[8]; [20]", "result": 0}, {"measurement": "Plant response rating, Rape", "setting": "[8]; [21]", "result": 0}, {"measurement": "Rape plant response rating", "setting": "[8]; [25]", "result": 0}, {"measurement": "Rape plant response rating", "setting": "[8]; [23]", "result": 8}, {"measurement": "Plant response rating, Velvetleaf", "setting": "[9]; [18]", "result": 0}, {"measurement": "Velvetleaf plant response rating", "setting": "[9]; [19]", "result": 0}, {"measurement": "Plant response rating, Velvetleaf", "setting": "[9]; [20]", "result": 0}, {"measurement": "Plant response rating, Velvetleaf", "setting": "[9]; [21]", "result": 2}, {"measurement": "Velvetleaf plant response rating", "setting": "[9]; [25]", "result": 6}, {"measurement": "Velvetleaf plant response rating", "setting": "[9]; [23]", "result": 7}, {"measurement": "Wheat plant response rating", "setting": "[10]; [19]", "result": 5}, {"measurement": "Plant response rating, Wheat", "setting": "[10]; [20]", "result": 0}, {"measurement": "Plant response rating, Wheat", "setting": "[10]; [21]", "result": 0}, {"measurement": "Wheat plant response rating", "setting": "[10]; [25]", "result": 2}, {"measurement": "Wheat plant response rating", "setting": "[10]; [23]", "result": 7}, {"measurement": "Wild oats plant response rating", "setting": "[11]; [19]", "result": 2}, {"measurement": "Plant response rating, Wild oats", "setting": "[11]; [20]", "result": 0}, {"measurement": "Plant response rating, Wild oats", "setting": "[11]; [21]", "result": 2}, {"measurement": "Wild oats plant response rating", "setting": "[11]; [25]", "result": 2}, {"measurement": "Wild oats plant response rating", "setting": "[11]; [23]", "result": 5}, {"measurement": "Plant response rating, Nutsedge", "setting": "[12]; [18]", "result": 0}, {"measurement": "Nutsedge plant response rating", "setting": "[12]; [19]", "result": 0}, {"measurement": "Plant response rating, Nutsedge", "setting": "[12]; [20]", "result": 0}, {"measurement": "Plant response rating, Nutsedge", "setting": "[12]; [21]", "result": 0}, {"measurement": "Nutsedge plant response rating", "setting": "[12]; [25]", "result": 0}, {"measurement": "Nutsedge plant response rating", "setting": "[12]; [23]", "result": 10}, {"measurement": "Rice plant response rating", "setting": "[13]; [26]", "result": 0}, {"measurement": "Plant response rating, Rice", "setting": "[13]; [27]", "result": 0}, {"measurement": "S. Flatsedge plant response rating", "setting": "[14]; [26]", "result": 0}, {"measurement": "Plant response rating, S. Flatsedge", "setting": "[14]; [27]", "result": 0}, {"measurement": "Plant response rating, Ducksalad", "setting": "[15]; [28]", "result": 0}, {"measurement": "Ducksalad plant response rating", "setting": "[15]; [29]", "result": 0}, {"measurement": "Ducksalad plant response rating", "setting": "[15]; [30]", "result": 0}, {"measurement": "Plant response rating, Ducksalad", "setting": "[15]; [31]", "result": 0}, {"measurement": "Plant response rating, Barnyardgrass", "setting": "[16]; [28]", "result": 0}, {"measurement": "Barnyardgrass plant response rating", "setting": "[16]; [29]", "result": 0}, {"measurement": "Barnyardgrass plant response rating", "setting": "[16]; [30]", "result": 0}, {"measurement": "Plant response rating, Barnyardgrass", "setting": "[16]; [31]", "result": 0}]}]}
